Experimental data published in patent publication US20250230193A1, “CYCLIC COMPOUND HAVING SELECTIVE KRAS INHIBITORY EFFECT ON HRAS AND NRAS” (CHUGAI SEIYAKU KABUSHIKI KAISHA, priority 2022, published 2025).
Where a SMILES comes first, the peptide text is derived from it. Bridges are numbered along the chain shown (N, C = ends). [ ]: non-standard residue; d: D form. The star is where a group is joined. hPhe(3-Cl-4-CF3) = N[C@@H](CCc1ccc(C(F)(F)F)c(Cl)c1)C(=O)O; NPrPhe(4-CF3) = CCCN[C@@H](Cc1ccc(C(F)(F)F)cc1)C(=O)O; NPrPhe(4-Me) = CCCN[C@@H](Cc1ccc(C)cc1)C(=O)O; NMeGly(cPent) = CN[C@H](C(=O)O)C1CCCC1; NMeD = CN[C@@H](CC(=O)O)C(=O)O; NMeL = CN[C@@H](CC(C)C)C(=O)O; Pip = O=C(O)[C@@H]1CCCCN1; Morpholide = C1CN(*)CCO1; NMeA = CN[C@@H](C)C(=O)O; Ac5c = NC1(C(=O)O)CCCC1; Aze = O=C(O)[C@@H]1CCN1; Aib = CC(C)(N)C(=O)O; Sar = CNCC(=O)O

Key:
[1] = target: GDP-bound NRAS wild-type protein (Homo sapiens, UniProt P01111); assay: Binding to NRAS by surface plasmon resonance (SPR), Single Cycle Kinetics; conditions: SPR
GDP-bound NRAS wild-type protein, sequence (P01111 whole entry): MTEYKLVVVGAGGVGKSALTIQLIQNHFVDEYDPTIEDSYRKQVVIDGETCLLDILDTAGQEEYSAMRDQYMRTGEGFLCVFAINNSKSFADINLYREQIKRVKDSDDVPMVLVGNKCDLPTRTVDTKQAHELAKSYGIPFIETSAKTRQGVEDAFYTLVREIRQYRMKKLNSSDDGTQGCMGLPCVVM

[2] = target: GDP-bound HRAS wild-type protein (Homo sapiens, UniProt P01112); assay: Binding to HRAS by surface plasmon resonance (SPR), Single Cycle Kinetics; conditions: SPR
GDP-bound HRAS wild-type protein, sequence (P01112 whole entry): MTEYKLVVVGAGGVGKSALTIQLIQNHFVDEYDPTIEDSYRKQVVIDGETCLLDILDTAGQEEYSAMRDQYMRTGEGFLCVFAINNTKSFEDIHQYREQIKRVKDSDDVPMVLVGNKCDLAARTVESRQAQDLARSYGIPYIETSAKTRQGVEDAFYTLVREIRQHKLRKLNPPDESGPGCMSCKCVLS

[3] = GDP-bound NRAS wild-type vs GDP-bound KRAS wild-type
[4] = GDP-bound HRAS wild-type vs GDP-bound KRAS wild-type
[5] = KD ratio, GDP-bound NRAS wild-type vs GDP-bound KRAS wild-type
[6] = KD ratio, GDP-bound HRAS wild-type vs GDP-bound KRAS wild-type

In the case of `CCCN1C(=O)CN(C)C(=O)CN(C)C(=O)[C@H]([C@@H](C)CC)NC(=O)[C@H](CC(C)C)N(C)C(=O)C[C@@H](C(=O)N2CCOCC2)N(C)C(=O)[C@H](C2CCCC2)N(C)C(=O)C2(CCCC2)NC(=O)[C@@H]2CCCCN2C(=O)[C@H](CCc2ccc(C(F)(F)F)c(Cl)c2)NC(=O)CN(C)C(=O)[C@@H]1Cc1ccc(C(F)(F)F)cc1` [PP0263] ([NMeL]I[Sar][Sar][NPrPhe(4-CF3)][Sar][hPhe(3-Cl-4-CF3)][Pip][Ac5c][NMeGly(cPent)][NMeD]-Morpholide; lactam N-11), the “NRAS/KRAS (ratio of KD for GDP-bound NRAS wild-type to KD for KRAS)” value ([1]; KD ratio NRAS/KRAS) is reported as “B (a compound having 3 or more and less than 10 is denoted as B)” and the “HRAS/KRAS (ratio of KD for GDP-bound HRAS wild-type to KD for KRAS)” value ([2]; KD ratio HRAS/KRAS) is reported as “C (A compound having a KD ratio of 0.1 or more and less than 3 is denoted as C)”.

For `CCCN1C(=O)CN(C)C(=O)CN(C)C(=O)[C@H]([C@@H](C)CC)NC(=O)[C@H](CC(C)C)N(C)C(=O)C[C@@H](C(=O)N2CCOCC2)N(C)C(=O)[C@H](C2CCCC2)N(C)C(=O)C(C)(C)NC(=O)[C@@H]2CCCN2C(=O)[C@H](CCc2ccc(C(F)(F)F)c(Cl)c2)NC(=O)CN(C)C(=O)[C@@H]1Cc1ccc(C(F)(F)F)cc1` [PP0230] ([NMeL]I[Sar][Sar][NPrPhe(4-CF3)][Sar][hPhe(3-Cl-4-CF3)]P[Aib][NMeGly(cPent)][NMeD]-Morpholide; lactam N-11), the “NRAS/KRAS (ratio of KD for GDP-bound NRAS wild-type to KD for KRAS)” value ([1]; KD ratio NRAS/KRAS) was “B (a compound having 3 or more and less than 10 is denoted as B)” and the “HRAS/KRAS (ratio of KD for GDP-bound HRAS wild-type to KD for KRAS)” value ([2]; KD ratio HRAS/KRAS) was “C (A compound having a KD ratio of 0.1 or more and less than 3 is denoted as C)”.

For `CC[C@H](C)[C@@H]1NC(=O)[C@@H]2CCCCCc3ccc(cc3)C[C@@H](C(=O)N(C)CC(=O)N[C@@H](CCc3ccc(C(F)(F)F)c(OC)c3)C(=O)N3C[C@H](OC4CCC4)C[C@H]3C(=O)NC3(CC(C)(C)C3)C(=O)N(C)[C@@H](C3CCCC3)C(=O)N(C)[C@H](C(=O)N(C)C)CC(=O)N2C)N2CC/C=C\C[C@@H](C2=O)N(C)C(=O)CN(C)C1=O` [PP3073], the “NRAS/KRAS (ratio of KD value with respect to GDP-bound NRAS wild-type protein to KD value with respect to KRAS)” value ([1]; KD ratio NRAS/KRAS, GDP-bound wild-type proteins) was “A (a compound having 10 or more and less than 20 is denoted as A)” and the “HRAS/KRAS (ratio of KD value with respect to GDP-bound HRAS wild-type protein to KD value with respect to KRAS)” value ([2]; KD ratio HRAS/KRAS, GDP-bound wild-type proteins) was “A (a compound having 10 or more and less than 20 is denoted as A)”.

In the case of `CCC[C@H]1C(=O)N[C@@H]([C@@H](C)CC)C(=O)N(C)CC(=O)N(C)[C@H]2C/C=C\CCN(C2=O)[C@@H](Cc2ccc(C)cc2)C(=O)N(C)CC(=O)N[C@@H](CCc2ccc(C(F)(F)F)c(Cl)c2)C(=O)N2C[C@H](CC)C[C@H]2C(=O)NC2(CCC2)C(=O)N(C)[C@@H](C2CCCC2)C(=O)N(C)[C@H](C(=O)N(C)C)CC(=O)N1C` [PP2237], the “NRAS/KRAS (ratio of KD value with respect to NRAS to KD value with respect to KRAS)” value [1, 3] is reported as “A (a compound having 10 or more and less than 20 is denoted as A)” and the “HRAS/KRAS (ratio of KD value with respect to HRAS to KD value with respect to KRAS)” value [2, 4] is reported as “A (a compound having 10 or more and less than 20 is denoted as A)”.

In the case of `CCCN1C(=O)[C@@H]2CCN2C(=O)[C@H](C)N(C)C(=O)[C@H]([C@@H](C)CC)NC(=O)[C@H](CC(C)C)N(C)C(=O)C[C@@H](C(=O)N2CCOCC2)N(C)C(=O)[C@H](C2CCCC2)N(C)C(=O)C2(CCCC2)NC(=O)[C@@H]2CCCN2C(=O)[C@H](CCc2ccc(C(F)(F)F)c(Cl)c2)NC(=O)CN(C)C(=O)[C@@H]1Cc1ccc(C)cc1` [PP0052] ([NMeL]I[NMeA][Aze][NPrPhe(4-Me)][Sar][hPhe(3-Cl-4-CF3)]P[Ac5c][NMeGly(cPent)][NMeD]-Morpholide; lactam N-11), the “NRAS/KRAS (ratio of KD for GDP-bound NRAS wild-type to KD for KRAS)” value ([1]; KD ratio NRAS/KRAS) is reported as “C (A compound having a KD ratio of 0.1 or more and less than 3 is denoted as C)” and the “HRAS/KRAS (ratio of KD for GDP-bound HRAS wild-type to KD for KRAS)” value ([2]; KD ratio HRAS/KRAS) is reported as “B (a compound having 3 or more and less than 10 is denoted as B)”.

In the case of `C#CC[C@H]1C(=O)N[C@@H]([C@@H](C)CC)C(=O)N(C)CC(=O)N(C)[C@H]2C/C=C\CCN(C2=O)[C@@H](Cc2ccc(C(F)(F)F)cc2)C(=O)N(C)CC(=O)N[C@@H](CCc2cc(F)c(C(F)(F)F)c(F)c2)C(=O)N2C[C@H](OCC)C[C@H]2C(=O)NC2(CCC2)C(=O)N(C)[C@@H](C2CCCC2)C(=O)N(C)[C@H](C(=O)N(C)CCC)CC(=O)N1C` [PP1703], the “NRAS/KRAS (ratio of KD value for NRAS to KD value for KRAS)” value [1, 5] is reported as “A (a compound having 10 or more and less than 20 is denoted as A)” and the “HRAS/KRAS (ratio of KD value for HRAS to KD value for KRAS)” value [2, 6] is reported as “A (a compound having 10 or more and less than 20 is denoted as A)”.

`CCO[C@@H]1C[C@H]2C(=O)NC3(CCC3)C(=O)N(C)[C@@H](C3CCCC3)C(=O)N(C)[C@H](C(=O)N3CCOCC3)CC(=O)N(C)[C@@H](Cc3ccc(C)cc3)C(=O)N[C@@H]([C@@H](C)CC)C(=O)N(C)CC(=O)N(C)[C@H]3CCCCCN(C3=O)[C@@H](Cc3ccc(C(F)(F)F)cc3)C(=O)N(C)CC(=O)N[C@@H](CCc3cc(F)c(C(F)(F)F)c(F)c3)C(=O)N2C1` [PP0933] was tested, and the “NRAS/KRAS (ratio of KD value with respect to NRAS to KD value with respect to KRAS)” value [1, 5] was “A (a compound having 10 or more and less than 20 is denoted as A)” and the “HRAS/KRAS (ratio of KD value with respect to HRAS to KD value with respect to KRAS)” value [2, 6] was “B (a compound having 3 or more and less than 10 is denoted as B)”.

With `CCC[C@H]1C(=O)N[C@@H]([C@@H](C)CC)C(=O)N(C)CC(=O)N(C)[C@H]2C/C=C\CCN(C2=O)[C@@H](CC2CCC(F)(F)CC2)C(=O)N(C)CC(=O)N[C@@H](CCc2ccc(C(F)(F)F)c(Cl)c2)C(=O)N2C[C@H](OCC)C[C@H]2C(=O)NC2(CC(C)(C)C2)C(=O)N(C)[C@@H](C(CC)CC)C(=O)N(C)[C@H](C(=O)N(C)C)CC(=O)N1C` [PP2498] the “NRAS/KRAS (ratio of KD value with respect to NRAS to KD value with respect to KRAS)” value [1, 3] was “A (a compound having 10 or more and less than 20 is denoted as A)” and the “HRAS/KRAS (ratio of KD value with respect to HRAS to KD value with respect to KRAS)” value [2, 4] was “A (a compound having 10 or more and less than 20 is denoted as A)”.
